Experimental data as given in patent US11135234B2, “Effective aminoglycoside antibiotic for multidrug-resistant bacteria” (MICROBIAL CHEMISTRY RESEARCH FOUNDATION, priority 2015, dated 2021).
In brackets after ≈: the same amount, converted by molar mass.

Legend:
P. aeruginosa MSC01035 = assay: MIC, agar plate dilution method, P. aeruginosa MSC01035; assay type: cell-based, Pseudomonas aeruginosa; settings: P. aeruginosa MSC01035, ABK-resistant
In short: (§1)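 Read-out is the lowest compound concentration inhibiting growth (MIC, μg/mL), obtained by the agar plate dilution procedure of the Japan Society of Chemotherapy.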

S. marcescens TH-0447 = assay: MIC, agar plate dilution method, S. marcescens TH-0447; assay type: cell-based, Serratia marcescens; settings: S. marcescens TH-0447, AMK-resistant
In short: as §1

P. aeruginosa PAO1/GN315 = assay: MIC, agar plate dilution method, P. aeruginosa PAO1/GN315; assay type: cell-based, Pseudomonas aeruginosa; settings: P. aeruginosa PAO1/GN315, AMK-resistant
In short: as §1

S. marcescens GN6944 = assay: MIC, agar plate dilution method, S. marcescens GN6944; assay type: cell-based, Serratia marcescens; settings: S. marcescens GN6944, GM-resistant
In short: as §1

S. aureus RN4220 = assay: MIC, agar plate dilution method, S. aureus RN4220; assay type: cell-based, Staphylococcus aureus; settings: S. aureus RN4220, Sensitive bacterium
In short: as §1

[1] = tested on: K. pneumoniae ATCC BAA-1705; assay: MIC, agar plate dilution method, K. pneumoniae ATCC BAA-1705; assay type: cell-based, Klebsiella pneumoniae; settings: K. pneumoniae ATCC BAA-1705, KPC-producing strain
In short: as §1

E. coli JM109/pMW218 = assay: MIC, agar plate dilution method, E. coli JM109/pMW218; assay type: cell-based, Escherichia coli; settings: E. coli JM109/pMW218, Sensitive bacterium
In short: as §1

[2] = tested on: K. pneumoniae ATCC BAA-2146; assay: MIC, agar plate dilution method, K. pneumoniae ATCC BAA-2146; assay type: cell-based, Klebsiella pneumoniae; settings: K. pneumoniae ATCC BAA-2146, NDM-producing strain
In short: as §1

P. aeruginosa PAO1 = assay: MIC, agar plate dilution method, P. aeruginosa PAO1; assay type: cell-based, Pseudomonas aeruginosa; settings: P. aeruginosa PAO1, Sensitive bacterium
In short: as §1

P. aeruginosa MSC17707 = assay: MIC, agar plate dilution method, P. aeruginosa MSC17707; assay type: cell-based, Pseudomonas aeruginosa; settings: P. aeruginosa MSC17707, AMK-resistant
In short: as §1

S. aureus RN4220/pMS520 = assay: MIC, agar plate dilution method, S. aureus RN4220/pMS520; assay type: cell-based, Staphylococcus aureus; settings: S. aureus RN4220/pMS520, MRSA
In short: as §1

S. aureus MF490 = assay: MIC, agar plate dilution method, S. aureus MF490; assay type: cell-based, Staphylococcus aureus; settings: S. aureus MF490, MRSA
In short: as §1

E. faecium ATCC19434 = assay: MIC, agar plate dilution method, E. faecium ATCC19434; assay type: cell-based, Enterococcus faecium; settings: E. faecium ATCC19434
In short: as §1

[3] = tested on: A. baumannii ATCC BAA-1710; assay: MIC, agar plate dilution method, A. baumannii ATCC BAA-1710; assay type: cell-based, Acinetobacter baumannii; settings: A. baumannii ATCC BAA-1710, MDRA
In short: as §1

SMILES	minimal inhibitory concentration (MIC) (P. aeruginosa MSC01035) [µg/mL]	minimal inhibitory concentration (MIC) (S. marcescens TH-0447) [µg/mL]	minimal inhibitory concentration (MIC) (P. aeruginosa PAO1/GN315) [µg/mL]	minimal inhibitory concentration (MIC) (S. marcescens GN6944) [µg/mL]	minimal inhibitory concentration (MIC) (S. aureus RN4220) [µg/mL]	minimal inhibitory concentration (MIC) [1] [µg/mL]	minimal inhibitory concentration (MIC) (E. coli JM109/pMW218) [µg/mL]	minimal inhibitory concentration (MIC) [2] [µg/mL]	minimal inhibitory concentration (MIC) (P. aeruginosa PAO1) [µg/mL]	minimal inhibitory concentration (MIC) (P. aeruginosa MSC17707) [µg/mL]	minimal inhibitory concentration (MIC) (S. aureus RN4220/pMS520) [µg/mL]	minimal inhibitory concentration (MIC) (S. aureus MF490) [µg/mL]	minimal inhibitory concentration (MIC) (E. faecium ATCC19434) [µg/mL]	minimal inhibitory concentration (MIC) [3] [µg/mL]
CN[C@@H]1[C@@H](O[C@H]2O[C@H](CO)[C@@H](N)C[C@H]2O)O[C@H]2C[C@@H](N)[C@@H](O[C@H]3C[C@@H](O)[C@H](N)C[C@@H]3N)O[C@@H]2[C@@H]1O [Compound M7, 5,3″-dideoxyapramycin]	4 (≈ 7.88 µM)	8 (≈ 15.8 µM)	4 (≈ 7.88 µM)	4 (≈ 7.88 µM)	2 (≈ 3.94 µM)	1 (≈ 1.97 µM)	0.5 (≈ 0.985 µM)	1 (≈ 1.97 µM)	4 (≈ 7.88 µM)	4 (≈ 7.88 µM)	1 (≈ 1.97 µM)	4 (≈ 7.88 µM)	16 (≈ 31.5 µM)	8 (≈ 15.8 µM)
CNC1C(OC2OC(CO)C(N)CC2O)OC2CC(N)C(OC3C(N)CC(N)C(O)C3O)OC2C1O (centres unmarked) [Compound M9, 3″-deoxy-5-epiapramycin]	4 (≈ 7.64 µM)	4 (≈ 7.64 µM)	4 (≈ 7.64 µM)	4 (≈ 7.64 µM)	1 (≈ 1.91 µM)	1 (≈ 1.91 µM)	1 (≈ 1.91 µM)	1 (≈ 1.91 µM)	2 (≈ 3.82 µM)	4 (≈ 7.64 µM)	2 (≈ 3.82 µM)	4 (≈ 7.64 µM)	8 (≈ 15.3 µM)	4 (≈ 7.64 µM)
CNC1C(OC2OC(CO)C(N)CC2O)OC2CC(N)C(OC3C(N)CC(N)C(O)C3F)OC2C1O (stereo not drawn) [Compound M10, 5,3″-dideoxy-5-epi-5-fluoroapramycin]	4 (≈ 7.61 µM)	8 (≈ 15.2 µM)	4 (≈ 7.61 µM)	4 (≈ 7.61 µM)	2 (≈ 3.81 µM)	1 (≈ 1.9 µM)	0.5 (≈ 0.951 µM)	1 (≈ 1.9 µM)	4 (≈ 7.61 µM)	4 (≈ 7.61 µM)	2 (≈ 3.81 µM)	8 (≈ 15.2 µM)	8 (≈ 15.2 µM)	8 (≈ 15.2 µM)
CN[C@@H]1[C@@H](O[C@H]2O[C@H](CO)[C@@H](N)C[C@H]2O)O[C@H]2C[C@@H](N)[C@@H](O[C@@H]3[C@@H](N)C[C@@H](N)C[C@@H]3O)O[C@@H]2[C@@H]1O [Compound N5, 6,3″-dideoxy-5-epiapramycin]	8 (≈ 15.8 µM)	8 (≈ 15.8 µM)	4 (≈ 7.88 µM)	4 (≈ 7.88 µM)	2 (≈ 3.94 µM)	2 (≈ 3.94 µM)	1 (≈ 1.97 µM)	2 (≈ 3.94 µM)	4 (≈ 7.88 µM)	8 (≈ 15.8 µM)	2 (≈ 3.94 µM)	4 (≈ 7.88 µM)	8 (≈ 15.8 µM)	8 (≈ 15.8 µM)
